IC50 data for 19 compounds are collected here from EP3807270B1, “NOVEL HETEROARYL HETEROCYCLYL COMPOUNDS FOR THE TREATMENT OF AUTOIMMUNE DISEASE” (F. Hoffmann-La Roche AG, priority 2018, dated 2019).

The target of the test is T1, human TLR8 (Homo sapiens, UniProt Q9NR97).
T1 construct: host or cells: HEK293 (HEK-Blue)
T1 sequence (Q9NR97 27-1041): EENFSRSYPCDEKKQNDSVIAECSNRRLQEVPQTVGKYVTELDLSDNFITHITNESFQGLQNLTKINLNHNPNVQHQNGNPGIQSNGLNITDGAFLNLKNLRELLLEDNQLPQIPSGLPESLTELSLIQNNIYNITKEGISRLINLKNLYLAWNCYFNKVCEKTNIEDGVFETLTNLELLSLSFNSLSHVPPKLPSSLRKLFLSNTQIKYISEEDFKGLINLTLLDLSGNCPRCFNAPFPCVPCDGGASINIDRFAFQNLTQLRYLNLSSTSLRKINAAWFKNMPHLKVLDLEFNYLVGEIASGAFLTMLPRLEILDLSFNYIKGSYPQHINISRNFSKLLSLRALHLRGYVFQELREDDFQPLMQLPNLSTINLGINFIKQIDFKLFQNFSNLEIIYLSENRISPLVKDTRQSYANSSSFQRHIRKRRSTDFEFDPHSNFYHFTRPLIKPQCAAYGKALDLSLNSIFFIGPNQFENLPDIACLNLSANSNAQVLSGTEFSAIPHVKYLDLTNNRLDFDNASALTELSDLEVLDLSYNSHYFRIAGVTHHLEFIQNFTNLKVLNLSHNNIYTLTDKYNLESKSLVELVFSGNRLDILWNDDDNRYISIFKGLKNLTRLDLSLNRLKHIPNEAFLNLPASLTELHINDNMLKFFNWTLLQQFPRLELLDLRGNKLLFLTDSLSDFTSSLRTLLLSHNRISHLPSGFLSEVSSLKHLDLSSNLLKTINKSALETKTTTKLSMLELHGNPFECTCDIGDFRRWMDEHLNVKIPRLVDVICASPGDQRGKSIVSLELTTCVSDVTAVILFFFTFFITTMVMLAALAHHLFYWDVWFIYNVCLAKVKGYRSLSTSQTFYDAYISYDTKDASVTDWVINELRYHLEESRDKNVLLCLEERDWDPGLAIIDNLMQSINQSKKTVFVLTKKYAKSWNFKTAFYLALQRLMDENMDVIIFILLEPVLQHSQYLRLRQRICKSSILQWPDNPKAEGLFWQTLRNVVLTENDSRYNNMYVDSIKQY
The experiment in a line: HEK293-Blue-hTLR-8 cells assay (SEAP reporter, R848 stimulation). Format: cell-based. The conditions noted are these: HEK293-Blue-hTLR8 cells, R848, 20 hrs; read-out: HEK/hTLR8 IC50. An excerpt: A stable HEK293-Blue-hTLR-8 cell line was purchased from InvivoGen (Cat.#: hkb-htlr8, San Diego, California, USA). These cells were originally designed for studying the stimulation of human TLR8 by monitoring the activation of NF-κB. A SEAP (secreted embryonic alkaline phosphatase) reporter gene was placed under the control of the IFN-β minimal promoter fused to five NF-κB and AP-1-binding sites. The SEAP was induced by activating NF-κB and AP-1 via stimulating HEK-Blue hTLR8 cells with TLR8 ligands. Therefore, the reporter expression was declined by TLR8 antagonist under the stimulation of a ligand, such as R848, for incubation of 20 hrs. The cell culture supernatant SEAP reporter activity was determined using QUANTI-Blue™ kit (Cat.#: rep-qb1, Invivogen, San Diego, Ca, USA) at a wavelength of 640 nm, a detection medium that turns purple or blue in the presence of alkaline phosphatase.
HEK293-Blue-hTLR8 cells were incubated at a density of 250,000-450,000 cells/mL in a volume of 170 µL in a 96-well plate in Dulbecco's Modified Eagle's medium (DMEM) containing 4.5 g/L glucose, 50 U/mL penicillin, […], […], 2 mM L-glutamine, 10% (v/v) heat-inactivated fetal bovine serum with addition of 20 µL test compound in a serial dilution in the presence of final DMSO at 1% and 10 µL of 60uM R848 in above DMEM, perform incubation under 37 °C in a CO2 incubator for 20 hrs. Then 20 µL of the supernatant from each well was incubated with 180 µL Quanti-blue substrate solution at 37°C for 2 hrs and the absorbance was read at 620-655 nm using a spectrophotometer. The signaling pathway that TLR8 activation leads to downstream NF-κB activation has been widely accepted, and therefore similar reporter assay was modified for evaluating TLR8 antagonist.

Molecules are shown by their SMILES.

As for `C[C@@H]1CN(c2ccc(C#N)c3ncccc23)C[C@H](CN2CCN(c3nc4c(s3)CNCC4)CC2)O1` [Example 31, 5-[(2R,6S)-2-methyl-6-[[4-(4,5,6,7-tetrahydrothiazolo[5,4-c]pyridin-2-yl)piperazin-1-yl]methyl]morpholin-4-yl]quinoline-8-carbonitrile], the IC50 was < 0.003 µM. The figure for `C[C@@H]1CN(c2ccc(C#N)c3ncccc23)C[C@H](CN2CCC(Nc3ncc4c(n3)CNC4)C2)O1` (stereo partly drawn) [Example 32, 5-[(2S,6R)-2-[[3-(6,7-dihydro-5H-pyrrolo[3,4-d]pyrimidin-2-ylamino)pyrrolidin-1-yl]methyl]-6-methyl-morpholin-4-yl]quinoline-8-carbonitrile] is 0.107 µM. Then `C[C@@H]1CN(c2ccc(C#N)c3ncccc23)C[C@H](CN2CCCN(c3nc4c(s3)CNCC4)CC2)O1` [Example 33, 5-[(2R,6S)-2-methyl-6-[[4-(4,5,6,7-tetrahydrothiazolo[5,4-c]pyridin-2-yl)-1,4-diazepan-1-yl]methyl]morpholin-4-yl]quinoline-8-carbonitrile], with 0.011 µM; and `C[C@@H]1CN(c2ccc(C#N)c3ncccc23)C[C@H](CN2CCN(c3ccc4c(n3)CCN(C)C4)CC2)O1` [Example 34, 5-[(2R,6S)-2-methyl-6-[[4-(6-methyl-7,8-dihydro-5H-1,6-naphthyridin-2-yl)piperazin-1-yl]methyl]morpholin-4-yl]quinoline-8-carbonitrile], with 0.006 µM. As to `C[C@@H]1CN(c2ccc(C#N)c3ncccc23)C[C@H](CN2CC3(CCN3c3ccc4c(n3)CCNC4)C2)O1` [Example 36, 5-[(2R,6S)-2-methyl-6-[[1-(5,6,7,8-tetrahydro-1,6-naphthyridin-2-yl)-1,6-diazaspiro[3.3]heptan-6-yl]methyl]morpholin-4-yl]quinoline-8-carbonitrile], the IC50 came out at 0.043 µM.

As for `C[C@@H]1CN(c2ccc(C#N)c3ncccc23)C[C@H](CN2CCC(Nc3ccc4c(c3)CNC4)C2)O1` (stereo partly drawn) [Example 38, 5-[(2S,6R)-2-[[3-(isoindolin-5-ylamino)pyrrolidin-1-yl]methyl]-6-methyl-morpholin-4-yl]quinoline-8-carbonitrile], the IC50 was 0.05 µM.

Turning to `C[C@@H]1CN(c2ccc(C#N)c3ncccc23)C[C@H](CN2CCCN(c3ncc4c(n3)CCNC4)CC2)O1` [Example 39, 5-[(2R,6S)-2-methyl-6-[[4-(5,6,7,8-tetrahydropyrido[4,3-d]pyrimidin-2-yl)-1,4-diazepan-1-yl]methyl]morpholin-4-yl]quinoline-8-carbonitrile], the IC50 came out at 0.012 µM. The figure for `C[C@@H]1CN(c2ccc(C#N)c3ncccc23)C[C@H](CN2CCN(c3cnc4c(n3)CNCC4)CC2)O1` [Example 40, 5-[(2R,6S)-2-methyl-6-[[4-(5,6,7,8-tetrahydropyrido[3,4-b]pyrazin-3-yl)piperazin-1-yl]methyl]morpholin-4-yl]quinoline-8-carbonitrile] is 0.004 µM; for `CC1NCc2ncc(N3CCN(C[C@H]4CN(c5ccc(C#N)c6ncccc56)C[C@@H](C)O4)CC3)cc21` (stereo partly drawn) [Example 41, 5-[(2R,6S)-2-methyl-6-[[4-(5-methyl-6,7-dihydro-5H-pyrrolo[3,4-b]pyridin-3-yl)piperazin-1-yl]methyl]morpholin-4-yl]quinoline-8-carbonitrile] it is 0.017 µM; for `C[C@@H]1CN(c2ccc(C#N)c3ncccc23)C[C@H](CNC2CN(c3cnc4c(c3)CNC4)C2)O1` [Example 43, 5-[(2S,6R)-2-[[[1-(6,7-dihydro-5H-pyrrolo[3,4-b]pyridin-3-yl)azetidin-3-yl]amino]methyl]-6-methyl-morpholin-4-yl]quinoline-8-carbonitrile] it is 0.054 µM. Then `C[C@@H]1CN(c2ccc(C#N)c3ncccc23)C[C@H](CN2CC3(C2)CN(c2ccc4c(c2)CCNC4)CCO3)O1` [Example 44, 5-[(2R,6S)-2-methyl-6-[[8-(1,2,3,4-tetrahydroisoquinolin-6-yl)-5-oxa-2,8-diazaspiro[3.5]nonan-2-yl]methyl]morpholin-4-yl]quinoline-8-carbonitrile], with 0.004 µM; and `C[C@@H]1CN(c2ccc(C#N)c3ncccc23)C[C@H](CN2CC3(C2)CN(c2ccc4c(n2)CNCC4)CCO3)O1` [Example 45, 5-[(2R,6S)-2-methyl-6-[[8-(5,6,7,8-tetrahydro-1,7-naphthyridin-2-yl)-5-oxa-2,8-diazaspiro[3.5]nonan-2-yl]methyl]morpholin-4-yl]quinoline-8-carbonitrile], with 0.01 µM. Consider `C[C@@H]1CN(c2ccc(C#N)c3ncccc23)C[C@H](CN2CC3(C2)CN(c2cnc4c(c2)CCNC4)CCO3)O1` [Example 46, 5-[(2R,6S)-2-methyl-6-[[8-(5,6,7,8-tetrahydro-1,7-naphthyridin-3-yl)-5-oxa-2,8-diazaspiro[3.5]nonan-2-yl]methyl]morpholin-4-yl]quinoline-8-carbonitrile], for which the IC50 was 0.009 µM. The figure for `C[C@@H]1CN(c2ccc(C#N)c3ncccc23)C[C@H](CN2CC3(C2)CN(c2cnc4c(c2)CNCC4)CCO3)O1` [Example 47, 5-[(2R,6S)-2-methyl-6-[[8-(5,6,7,8-tetrahydro-1,6-naphthyridin-3-yl)-5-oxa-2,8-diazaspiro[3.5]nonan-2-yl]methyl]morpholin-4-yl]quinoline-8-carbonitrile] is 0.02 µM; for `C[C@@H]1CN(c2ccc(C#N)c3ncccc23)C[C@H](CN2CC3(C2)CN(c2cc4c(cn2)CCNC4)CCO3)O1` [Example 48, 5-[(2R,6S)-2-methyl-6-[[8-(5,6,7,8-tetrahydro-2,6-naphthyridin-3-yl)-5-oxa-2,8-diazaspiro[3.5]nonan-2-yl]methyl]morpholin-4-yl]quinoline-8-carbonitrile] it is 0.008 µM; for `C[C@@H]1CN(c2ccc(C#N)c3ncccc23)C[C@H](CN2CC3(C2)CN(c2ccc4c(n2)CCNC4)CCO3)O1` [Example 49, 5-[(2R,6S)-2-methyl-6-[[8-(5,6,7,8-tetrahydro-1,6-naphthyridin-2-yl)-5-oxa-2,8-diazaspiro[3.5]nonan-2-yl]methyl]morpholin-4-yl]quinoline-8-carbonitrile] it is < 0.003 µM.

As to `C[C@@H]1CN(c2ccc(C#N)c3ncccc23)C[C@H](CN2CC3(C2)CN(c2cnc4c(n2)CCNC4)CCO3)O1` [Example 50, 5-[(2R,6S)-2-methyl-6-[[8-(5,6,7,8-tetrahydropyrido[3,4-b]pyrazin-2-yl)-5-oxa-2,8-diazaspiro [3.5]nonan-2-yl]methyl]morpholin-4-yl] quinoline-8-carbonitrile], the IC50 is < 0.003 µM. The figure for `C[C@@H]1CN(c2ccc(C#N)c3ncccc23)C[C@H](CN2CC3(C2)CN(c2ncc4c(n2)CCNC4)CCO3)O1` [Example 51, 5-[(2R,6S)-2-methyl-6-[[8-(5,6,7,8-tetrahydropyrido[4,3-d]pyrimidin-2-yl)-5-oxa-2,8-diazaspiro[3.5]nonan-2-yl]methyl]morpholin-4-yl]quinoline-8-carbonitrile] is 0.005 µM.

Regarding `C[C@@H]1CN(c2ccc(C#N)c3ncccc23)C[C@H](CN2C[C@@H]3[C@@H](C2)OCCN3c2cnc3c(c2)CCNC3)O1` [Example 52, 5-[(2S,6R)-2-[[(4aR,7aR)-4-(5,6,7,8-tetrahydro-1,7-naphthyridin-3-yl)-2,3,4a,5,7,7a-hexahydropyrrolo[3,4-b][1,4]oxazin-6-yl]methyl]-6-methylmorpholin-4-yl]quinoline-8-carbonitrile], the IC50 is 0.026 µM.
